# Experimental data published in US7053113B2, “Mannich base prodrugs of 3-(pyrrol-2-yl-methylidene)-2-indolinone derivatives” (Sugen, Inc., priority 2000, dated 2006).
# How the values were obtained:
# [1] = Plasma Stability Test: conversion of prodrug to drug after IV administration to dogs; format: in vivo; settings: IV at 2 mg/mL, HPLC analysis of blood plasma for 4 hours following dosing
# Experimental: The prodrug (3Z)-3-[(3,5-dimethyl-1H-pyrrol-2-yl)-methylidene]-1-(1-pyrrolidinylmethyl)-1,3-dihydro-2H-indol-2-one was administered IV at 2 mg/mL to dogs. Levels of both prodrug and drug (3(Z)-3-[(3,5-dimethyl-1H-pyrrol-2-yl)-methylidene]-1,3-dihydro-2H-indol-2-one) were followed by HPLC analysis of blood plasma for 4 hours following dosing.
# [2] = Aqueous solubility of the prodrug compared with the parent compound; format: physicochemical; settings: compared with parent compound (II)
structure (smiles),measurement,setting,value
"Cc1cc(C)c(/C=C2\C(=O)N(CN3CCCC3)c3ccccc32)[nH]1 [Example 2, (3Z)-3-[(3,5-dimethyl-1H-pyrrol-2-yl)-methylidene]-1-(1-pyrrolidinylmethyl)-1,3-dihydro-2H-indol-2-one]",prodrug converted into drug (area under the curve of drug concentration vs time),[1],80%
same,aqueous solubility over the parent compound,[2],increased aqueous solubility
